Laboratory results: PMC7531004, “Discovery of gramicidin A analogues with altered activities by multidimensional screening of a one-bead-one-compound library” (Nature Communications, 2020)
Where a SMILES comes first, the peptide text is derived from it. [ ]: non-standard residue; d: D form. The star is where a group is joined. NHCH2CH2OH = OCCN*; For = O=C*

What was measured:
[1] = H+/Na+ transport assay of bead-derived peptides (one-point); format: biochemical; parameters: key: relative activity; mean of two control wells = 1.00; details: bead-derived peptide solution, EYPC/EYPG LUVs;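 further: relative to parent gramicidin A activity set to 1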
How it was run: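 One-point screen: peptide + pyranine-loaded LUVs, 30 min RT with vortexing, 96-well. Read-out is fluorescence intensity scaled as 100 × (Ix – I0)/(Imax – I0). Imax from Triton X-100, I0 from untreated vesicles, and the mean of the two control wells is set to 1.00.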

[2] = system: P388 mouse leukemia cells; details: 92 h
How it was run: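 First, library peptide stocks are diluted 250-fold in RPMI1640 with 10% heat-inactivated FBS. Next, they are mixed with P388 cells to give 1 × 10^4 cells/mL and incubated 92 h at 37 °C, 5% CO2. Finally, viability (%) is scored by WST-1 absorbance at 415 nm.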

[3] = system: Streptococcus pyogenes SSI-9; assay: Antibacterial activity assay of bead-derived peptides (three concentrations); format: cell-based; parameters: key: +++: inhibition by the 640-fold diluted peptide solution; ++: inhibition by the 160-fold diluted solution; +: inhibition by the 40-fold diluted solution; -: no inhibition; details: S. pyogenes, bead-derived peptide solution, three concentrations
How it was run: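 Three stock dilutions per peptide (none, 4-fold, 16-fold in DMSO) are screened in 96-well format. The medium is blood-supplemented cation-adjusted MHB, inoculated with 2 × 10^5 CFU S. pyogenes SSI-9. Growth is read as cell precipitation at 18 h, 37 °C.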

Structure (SMILES)	H+/Na+ transport activity normalized against the value of 1 (1.00) [1]	cell viability/% [2]	antibacterial activity [3]
CNC(=O)C[C@@H](NC(=O)[C@H](C)NC(=O)[C@@H](CC(C)C)NC(=O)[C@H](C)NC(=O)CNC(=O)[C@@H](NC=O)C(C)C)C(=O)N[C@H](C(=O)N[C@@H](C(=O)N[C@@H](Cc1c[nH]c2ccccc12)C(=O)N[C@H](CC(C)C)C(=O)N[C@@H](Cc1c[nH]c2ccccc12)C(=O)N[C@@H](C(=O)N[C@@H](Cc1c[nH]c2ccccc12)C(=O)N[C@H](CC(C)C)C(=O)N[C@@H](Cc1c[nH]c2ccccc12)C(=O)NCCO)C(C)C)C(C)C)C(C)C [compound 9352] (For-VGA[dL]A[dD](NHMe)V[dV]W[dL]W[dV]W[dL]W-NHCH2CH2OH)	1.18	100.0%	-
CC(C)C[C@@H](NC(=O)[C@H](C)NC(=O)CNC(=O)[C@@H](NC=O)C(C)C)C(=O)N[C@@H](C)C(=O)N[C@H](CC(C)C)C(=O)N[C@H](C(=O)N[C@@H](C(=O)N[C@@H](Cc1c[nH]c2ccccc12)C(=O)N[C@@H](C(=O)N[C@@H](Cc1c[nH]c2ccccc12)C(=O)N[C@@H](C(=O)N[C@@H](Cc1c[nH]c2ccccc12)C(=O)N[C@H](CC(C)C)C(=O)N[C@@H](Cc1c[nH]c2ccccc12)C(=O)NCCO)C(C)C)[C@H](C)O)C(C)C)C(C)C [compound 4031] (For-VGA[dL]A[dL]V[dV]W[dT]W[dV]W[dL]W-NHCH2CH2OH)	1.05	92.4%	-
CNC(=O)C[C@@H](NC(=O)[C@@H](NC(=O)[C@H](NC(=O)[C@H](C)NC(=O)[C@@H](CC(C)C)NC(=O)[C@H](C)NC(=O)CNC(=O)[C@@H](NC=O)C(C)C)C(C)C)C(C)C)C(=O)N[C@@H](Cc1c[nH]c2ccccc12)C(=O)N[C@H](CC(C)C)C(=O)N[C@@H](Cc1c[nH]c2ccccc12)C(=O)N[C@H](CC(C)C)C(=O)N[C@@H](Cc1c[nH]c2ccccc12)C(=O)N[C@@H](C(=O)N[C@@H](Cc1c[nH]c2ccccc12)C(=O)NCCO)C(C)C [compound 8831] (For-VGA[dL]A[dV]V[dD](NHMe)W[dL]W[dL]W[dV]W-NHCH2CH2OH)	1.23	81.1%	-
CC(C)C[C@@H](NC(=O)[C@H](Cc1c[nH]c2ccccc12)NC(=O)[C@H](NC(=O)[C@H](Cc1c[nH]c2ccccc12)NC(=O)[C@@H](CC(C)C)NC(=O)[C@@H](NC(=O)[C@H](NC(=O)[C@H](C)NC(=O)[C@H](NC(=O)[C@H](C)NC(=O)CNC(=O)[C@@H](NC=O)C(C)C)C(C)C)C(C)C)C(C)C)C(C)C)C(=O)N[C@@H](Cc1c[nH]c2ccccc12)C(=O)N[C@@H](C(=O)N[C@@H](Cc1c[nH]c2ccccc12)C(=O)NCCO)C(C)C [compound 12947] (For-VGA[dV]A[dV]V[dL]W[dV]W[dL]W[dV]W-NHCH2CH2OH)	1.02	10.2%	+
CC(C)C[C@@H](NC(=O)[C@H](Cc1c[nH]c2ccccc12)NC(=O)[C@@H](CC(C)C)NC(=O)[C@H](Cc1c[nH]c2ccccc12)NC(=O)[C@H](NC(=O)[C@H](Cc1c[nH]c2ccccc12)NC(=O)[C@@H](CC(C)C)NC(=O)[C@@H](NC(=O)[C@H](NC(=O)[C@H](C)NC(=O)[C@H](NC(=O)[C@H](C)NC(=O)CNC(=O)[C@@H](NC=O)C(C)C)C(C)C)C(C)C)C(C)C)C(C)C)C(=O)N[C@@H](Cc1c[nH]c2ccccc12)C(=O)NCCO [compound 4329] (For-VGA[dV]A[dV]V[dL]W[dV]W[dL]W[dL]W-NHCH2CH2OH)	1.18	14.3%	-
CNC(=O)C[C@@H](NC(=O)[C@@H](NC(=O)[C@H](NC(=O)[C@H](C)NC(=O)[C@H](NC(=O)[C@H](C)NC(=O)CNC(=O)[C@@H](NC=O)C(C)C)C(C)C)C(C)C)C(C)C)C(=O)N[C@@H](Cc1c[nH]c2ccccc12)C(=O)N[C@H](CC(C)C)C(=O)N[C@@H](Cc1c[nH]c2ccccc12)C(=O)N[C@H](CC(C)C)C(=O)N[C@@H](Cc1c[nH]c2ccccc12)C(=O)N[C@H](CC(C)C)C(=O)N[C@@H](Cc1c[nH]c2ccccc12)C(=O)NCCO [compound 7437] (For-VGA[dV]A[dV]V[dD](NHMe)W[dL]W[dL]W[dL]W-NHCH2CH2OH)	1.11	100.0%	-
CC(C)C[C@@H](NC(=O)[C@H](C)NC(=O)CNC(=O)[C@@H](NC=O)C(C)C)C(=O)N[C@@H](C)C(=O)N[C@H](CC(C)C)C(=O)N[C@H](C(=O)N[C@H](CC(C)C)C(=O)N[C@@H](Cc1c[nH]c2ccccc12)C(=O)N[C@@H](C(=O)N[C@@H](Cc1c[nH]c2ccccc12)C(=O)N[C@@H](C(=O)N[C@@H](Cc1c[nH]c2ccccc12)C(=O)N[C@@H](C(=O)N[C@@H](Cc1c[nH]c2ccccc12)C(=O)NCCO)C(C)C)[C@H](C)O)C(C)C)C(C)C [compound 8722] (For-VGA[dL]A[dL]V[dL]W[dV]W[dT]W[dV]W-NHCH2CH2OH)	1.09	70.8%	-
CC(C)C[C@@H](NC(=O)[C@H](Cc1c[nH]c2ccccc12)NC(=O)[C@@H](CC(C)C)NC(=O)[C@H](Cc1c[nH]c2ccccc12)NC(=O)[C@@H](CC(C)C)NC(=O)[C@H](Cc1c[nH]c2ccccc12)NC(=O)[C@H](NC(=O)[C@@H](NC(=O)[C@H](NC(=O)[C@H](C)NC(=O)[C@H](NC(=O)[C@H](C)NC(=O)CNC(=O)[C@@H](NC=O)C(C)C)C(C)C)C(C)C)C(C)C)C(C)C)C(=O)N[C@@H](Cc1c[nH]c2ccccc12)C(=O)NCCO [compound 662] (For-VGA[dV]A[dV]V[dV]W[dL]W[dL]W[dL]W-NHCH2CH2OH)	1.04	1.5%	+++
CC(C)C[C@@H](NC(=O)[C@H](C)NC(=O)CNC(=O)[C@@H](NC=O)C(C)C)C(=O)N[C@@H](C)C(=O)N[C@@H](C(=O)N[C@H](C(=O)N[C@@H](C(=O)N[C@@H](Cc1c[nH]c2ccccc12)C(=O)N[C@H](CC(C)C)C(=O)N[C@@H](Cc1c[nH]c2ccccc12)C(=O)N[C@H](CC(C)C)C(=O)N[C@@H](Cc1c[nH]c2ccccc12)C(=O)N[C@H](CC(C)C)C(=O)N[C@@H](Cc1c[nH]c2ccccc12)C(=O)NCCO)C(C)C)C(C)C)C(C)C [compound 6292] (For-VGA[dL]A[dV]V[dV]W[dL]W[dL]W[dL]W-NHCH2CH2OH)	1.25	5.4%	++
CC(C)C[C@@H](NC(=O)[C@H](C)NC(=O)[C@H](NC(=O)[C@H](C)NC(=O)CNC(=O)[C@@H](NC=O)C(C)C)C(C)C)C(=O)N[C@H](C(=O)N[C@H](CC(C)C)C(=O)N[C@@H](Cc1c[nH]c2ccccc12)C(=O)N[C@@H](C(=O)N[C@@H](Cc1c[nH]c2ccccc12)C(=O)N[C@H](CC(C)C)C(=O)N[C@@H](Cc1c[nH]c2ccccc12)C(=O)N[C@H](CC(C)C)C(=O)N[C@@H](Cc1c[nH]c2ccccc12)C(=O)NCCO)C(C)C)C(C)C [compound 5699] (For-VGA[dV]A[dL]V[dL]W[dV]W[dL]W[dL]W-NHCH2CH2OH)	1.05	36.7%	+
